Test systems include Candida krusei ATCC 6258; Candida albicans PEEC 2; Candida albicans DBFIQ 1; Fusarium graminearum; Staphylococcus aureus; Escherichia coli; Bacillus cereus DSM 4312; Listeria monocytogenes; Bacillus cereus DSM 4222.
Assay in all cases: ≥ marks a high value that may be exact or a test limit, other limits are often not marked, values filed in µg/mL are converted to µM
For test [1], the system named is Pseudomonas aeruginosa ATCC 27853.
Test [2] concerns Candida glabrata ATCC 2001.
For test [3], the system named is Candida tropicalis ATCC 750.
Test [4] concerns Candida albicans ATCC 10231.
Test [5] deals with Staphylococcus aureus ATCC 29213.
For test [6], the system named is Candida parapsilosis ATCC 90018.
Test [7] deals with Escherichia coli ATCC 25922.
Test [8] deals with Staphylococcus aureus ATCC 25923.
Test [9] relates to Enterococcus faecalis ATCC 29212.
In test [10] the test system is Escherichia coli ATCC 35218.
The test system of test [11] is Staphylococcus aureus BSF FBCB1313.
Test [12] relates to Candida tropicalis DBFIQ 3.
Test [13] deals with Bifidobacterium longum subsp. infantis.
In test [14] the test system is Clostridium perfringens ATCC 13124.
In test [15] the test system is Pseudomonas aeruginosa ATCC 10145.
The test system of test [16] is Bacillus subtilis ATCC 6051.
In test [17] the test system is Listeria monocytogenes ATCC 19115.
Test [18] has as its system Escherichia coli ATCC 8739.
Test [19] concerns Pseudomonas fluorescens DSM 50124.
The test system of test [20] is Listeria monocytogenes SLCC 5581.
For test [21], the system named is Enterococcus faecium ATCC 19434.
For test [22], the system named is Staphylococcus aureus ATCC 43300.
The test system of test [23] is Salmonella enterica subsp. enterica serovar Typhimurium ATCC 14028.
Test [24] deals with Escherichia coli ATCC 35150.
For test [25], the system named is Staphylococcus aureus RN4220.
The test system of test [26] is Escherichia coli O157:H7 ATCC 35150.
Test [27] relates to Staphylococcus aureus ATCC 6538.
The test system of test [28] is Enterobacter cloacae ATCC 13047.
Test [29] concerns Escherichia coli NCTC 13452.
Test [30] concerns Pseudomonas putida DSM 291.
The test system of test [31] is Clostridium perfringens DSM 11784.
Test [32] deals with Salmonella typhimurium DSM 19587.
Test [33] has as its system Salmonella enterica subsp. enterica serovar Typhimurium DSM 554.
Test [34] deals with Staphylococcus aureus DSM 2569.
Test [35] concerns Staphylococcus aureus ATCC 16558.
Test [36] relates to Klebsiella pneumoniae ATCC 13883.
For test [37], the system named is Bacillus subtilis ATCC 6633.
The test system of test [38] is Acinetobacter baumannii ATCC 17978.
In test [39] the test system is Staphylococcus aureus ATCC 3300.
Test [40] relates to Escherichia coli NEB5alpha.

SMILES strings stand for the structures. Values after ≈ are worked out from the molar mass of the structure shown. Where only a bound is given, the exact number is not on record here.

`CC[C@H](C)[C@H](NC(=O)CN)C(=O)N[C@@H](CC(C)C)C(=O)N[C@@H](CC(=O)O)C(=O)N[C@H](C(=O)N[C@@H](CCCCN)C(=O)N[C@@H](CC(N)=O)C(=O)N[C@@H](CCCCN)C(=O)N[C@H](C(=O)N[C@@H](CO)C(=O)N[C@@H](CC(N)=O)C(=O)N[C@@H](CC(C)C)C(=O)N[C@@H](Cc1ccccc1)C(=O)N[C@@H](CCCCN)C(=O)N[C@@H](CCCCN)C(=O)N[C@H](C(=O)N[C@@H](CCCCN)C(N)=O)[C@@H](C)CC)C(C)C)[C@@H](C)CC` [GILDIKNKVSNLFKKIK]: the minimum inhibitory concentration (MIC) (in general, the smallest concentration in the dilution series that meets the test's criterion for growth inhibition) in [1] is above 130 µM; against Candida krusei ATCC 6258, at least 62.5 µM; in test [2], at least 500 µM; in test [3], at least 500 µM; in test [4] it was 250 µM (≈ 489 µg/mL); in [5], above 130 µM. Further, the minimum inhibitory concentration (MIC) in test [6] is at least 500 µM; in test [7], above 130 µM.
For `CC(C)C[C@H](NC(=O)[C@H](CCCCN)NC(=O)[C@H](CCCCN)NC(=O)[C@H](Cc1ccccc1)NC(=O)[C@H](CC(C)C)NC(=O)[C@H](CCCCN)NC(=O)[C@H](CCCCN)NC(=O)[C@H](Cc1ccccc1)NC(=O)[C@H](CC(C)C)NC(=O)[C@@H](N)CCCCN)C(=O)N[C@@H](Cc1ccccc1)C(=O)N[C@@H](CCCCN)C(N)=O` [KLFKKLFKKLFK], the minimum inhibitory concentration (MIC) in [8] was 2.6 µM (≈ 4.07 µg/mL); in the test with Candida albicans PEEC 2, at least 40.8 µM; in test [1], 2.6 µM (≈ 4.07 µg/mL); in test [9] it was 5.1 µM (≈ 7.99 µg/mL); in test [10], 5.1 µM (≈ 7.99 µg/mL); against Candida albicans DBFIQ 1 it was at least 40.8 µM. The MIC in test [11] was 10.2 µM (≈ 16 µg/mL); in test [12] it was at least 81.7 µM.
On to `CC(C)C[C@H](NC(=O)[C@@H](N)CCCCN)C(=O)N[C@@H](CS)C(=O)N[C@@H](CCC(=O)O)C(=O)N[C@@H](CCCCN)C(=O)N1CCC[C@H]1C(=O)N[C@@H](CO)C(=O)N[C@@H](CCCCN)C(=O)N[C@H](C(=O)N[C@@H](Cc1c[nH]c2ccccc12)C(=O)N[C@@H](Cc1ccccc1)C(=O)NCC(=O)N[C@@H](CC(N)=O)C(=O)N[C@@H](CS)C(=O)NCC(=O)N[C@@H](CC(N)=O)C(=O)N1CCC[C@H]1C(=O)N[C@@H](CCCN=C(N)N)C(=O)N[C@@H](Cc1cnc[nH]1)C(=O)N[C@@H](CS)C(=O)NCC(=O)O)[C@@H](C)O` [KLCEKPSKTWFGNCGNPRHCG], for which the MIC in the test with Fusarium graminearum is at least 32 µM.
Consider `CC[C@H](C)[C@H](NC(=O)[C@@H]1CCCN1C(=O)[C@H](CC(N)=O)NC(=O)[C@H](Cc1cnc[nH]1)NC(=O)[C@@H](NC(=O)[C@@H]1CCCN1C(=O)[C@H](C)NC(=O)[C@@H](N)CC(C)C)C(C)C)C(=O)O` [LAPVHNPI], for which the minimal inhibitory concentration (MIC) in test [13] is at least 3490 µM; against Staphylococcus aureus, 3490 µM (≈ 3000 µg/mL); against Escherichia coli it was 3490 µM (≈ 3000 µg/mL).
`CC[C@H](C)[C@H](NC(=O)[C@@H](N)CCCN=C(N)N)C(=O)N[C@@H](CCCCN)C(=O)N[C@H](C(=O)N[C@H](C(=O)N[C@H](C(=O)N[C@@H](CO)C(=O)N[C@@H](Cc1ccccc1)C(=O)N[C@@H](CC(=O)O)C(=O)N[C@@H](CC(C)C)C(=O)N1CCC[C@H]1C(=O)N[C@@H](C)C(=O)N[C@@H](CC(C)C)C(=O)N[C@@H](CCCN=C(N)N)C(=O)N[C@@H](Cc1c[nH]c2ccccc12)C(=O)N[C@@H](CC(C)C)C(=O)N[C@@H](CCCCN)C(=O)N[C@@H](CC(C)C)C(=O)O)[C@@H](C)O)C(C)C)[C@@H](C)O` [RIKTVTSFDLPALRWLKL]: the MIC in test [14] is at least 125 µM; in [15] it was at least 464 µM; in test [16] it was 15.6 µM (≈ 33.7 µg/mL); in [17], at least 1160 µM; in [8] it was above 464 µM; in test [18] it was at least 371 µM. The MIC in test [19] is at least 500 µM; in test [20], at least 500 µM; in test [21] it was at least 464 µM; in test [22] it was above 464 µM; in test [23] it was above 464 µM; in [24], at least 500 µM. Besides, the MIC in test [25] was at least 1160 µM; in [26], at least 371 µM; in test [27], above 1160 µM; in test [28], at least 464 µM; in test [29] it was at least 125 µM; in test [30], at least 125 µM. In addition, the MIC in [31] is at least 1000 µM; in test [32], at least 1000 µM; in test [33], at least 1000 µM; in test [34], at least 500 µM; in the test with Bacillus cereus DSM 4312, at least 1000 µM; in test [35], at least 1160 µM. For the same compound, the minimum inhibitory concentration (MIC) was at least 464 µM in test [36]; at least 250 µM with Listeria monocytogenes; at least 1160 µM in test [37]; at least 464 µM in [38]; at least 1000 µM with Bacillus cereus DSM 4222; at least 500 µM in [39]. Besides, the MIC was above 464 µM against Escherichia coli and at least 62.5 µM in test [40].

For the origin of these results see DBAASP.
